Experimental data: publication PMC8327158, “PEGylated AdipoRon derivatives improve glucose and lipid metabolism under insulinopenic and high-fat diet conditions” (Journal of Lipid Research, 2021)
In brackets after ≈: the same amount, converted by molar mass.

Assays:
[1] = Water solubility quantified by LC-MS/MS; type: physicochemical; details: for solubility: water
Protocol: We quantified the solubilities of AdiponRons by LC-MS/MS. Briefly, water (HPLC grade) was added in 50–100 μl increments to a glass vial containing either AdipoRon (0.97 mg) or AdipoRonPEG5 (1.69 mg), vortexed until the compound started to dissolve (AdipoRon, […]; AdipoRonPEG5, […]). The suspension was then stirred overnight away from light. The solution was transferred to Teflon tubes and centrifuged at 15,000 rpm at room temperature for 10 min. We then collected the supernatant (aqueous saturated solution) for dilution and analysis.
For standards, 98 μl water was added to an Eppendorf tube and combined with 200 μl of methanol containing 0.15% formic acid and 75 ng/ml […] Standard (IS, n-benzeylbenzamide in MeOH. IS final conc. = 50 ng/ml). Samples were spiked with 2 μl of IS. The samples were vortexed 15 s, and spun 2 × 13,200 rpm in a standard microcentrifuge. The supernatant was then analyzed by LC-MS/MS on a QTrap 4000 system (AB Sciex) with the following settings: Ion Source/Gas Parameters: CUR = 25, CAD = medium, IS = 5,000, TEM = 500, GS1 = 70, GS2 = 70. Buffer A: Water + 0.1% formic acid + 2 mM NH4OAC; Buffer B: methanol + 0.1% formic acid + 2 mM NH4OAC; flow rate 1.5 ml/min; Agilent C18 XDB column, 5 micron packing 50 × 4.6 mm size. HPLC elution gradient: 0–0.5 min 97% A, 0.5–2.0 min gradient to 100% B, 2.0–3.5 min 100% B, 3.5–3.6 min gradient to 97% A, 3.6–4.1 97% A. Compound transition 429.156 to 174.1 for AdipoRon and 665.289 to 135.2 for AdipoRonPEG5.

[2] = Liver drug concentration and bioavailability after IP dosing; type: in vivo, C57BL/6J mice; details: IP 20 mg/kg; for liver Cmax: 8-week-old C57BL/6J mice, mean ± SEM
Protocol: Two groups of male C57BL/6J mice (21 mice/group) at 8 weeks of age were dosed IP with 20 mg/kg AdipoRon or AdipoRonPEG5, 0.2 ml/mouse formulated as 10% DMSO/10% Cremophor/20% PEG400/60% PBS. Whole blood was harvested at seven time points post IP dosing, 10 min, 30 min, 90 min, 180 min, 360 min, 960 min, and 1,440 min. Three mice were euthanized at each time point. Plasma was processed from whole blood by centrifugation of the ACD-treated blood for 10′ at 10,000 rpm in a standard centrifuge. Additionally, the liver was harvested. The tissues were weighed and snap frozen in liquid nitrogen.
To measure liver drug concentration and bioavailability, we prepared standards by adding 98 μl blank liver homogenate to an Eppendorf, spiked with 2 μl of initial standard. For QCs, we added 98.8 μl blank liver homogenate to an Eppendorf, spiked with 1.2 μl of initial standard. For samples, we mixed 100 μl liver homogenate with 200 μl of methanol containing 0.15% formic acid and 75 ng/ml IS (IS final conc. = 50 ng/ml). The samples were vortexed 15 s, incubated at room temp for 10′, and spun 2× 13,200 rpm in a standard microcentrifuge. The supernatant was then analyzed by LC-MS/MS.

INS-1 β-cells = assay: Palmitate-induced cell death protection assay (PI fluorescence plate reader); type: cell-based, rat; details: PA 0.25 mM, 24 h
Protocol: A 7.1 mM palmitic acid stock solution was prepared in 95% ethanol by incubating at 37°C. In parallel, 2% fatty-acid-free BSA was solubilized in sterile nanopure water at 37°C. The palmitic acid/BSA complex solution was then prepared by incubating the components in a molar ratio of 5:1 at 37°C in a shaking water bath for 1 h and was used directly for INS-1 stimulation experiments. Control cultures were carried out in the presence of BSA/ethanol in RPMI without palmitic acid.
Quantification of β-cell death by PI staining was carried out on a fluorescence plate reader. Following a 2 h preincubation under serum-free conditions, INS-1 cells (60k cells/well, 96-well plate (COSTAR ref # 3603)) were kept for 24 h in Phenol Red-free FBS-free RPMI 0.5% BSA as a control or containing 0.25 mM PA-BSA in the presence or absence of treatment. Cells were stained for 10 min at 4°C with propidium iodide (PI) at 1 μg/ml (added to the existing media to avoid loss of dead cells). PI fluorescence intensity was measured with a plate reader (PHERAstar, BMG Labtech).

INS-1 cells = assay: qPCR gene expression in INS-1 cells; type: cell-based, rat; details: for genes related to insulin secretion and β-cell differentiation transcription factors: absence of palmitate

| SMILES | times more soluble in water than the parent molecule ([1]; vs AdipoRon) | solubility ([1]; LC-MS/MS, mean ± SD) | higher bioavailability in the liver than AdipoRon [2] | liver Cmax [2] | reduction of PA-induced apoptosis (INS-1 β-cells; 20 μM) | protective activity against PA-induced cell death (INS-1 β-cells; dose range) | genes related to insulin secretion and β-cell differentiation transcription factors (INS-1 cells; 20 μM) | expression of Ins1, Nkx6-1 and Kcnj11 (INS-1 cells; 20 μM, presence of palmitate) | expression of Hif-1α (INS-1 cells; PA-stressed INS-1 cells) | solubility in water ([1]; LC-MS/MS, mean ± SD) | protection from PA-induced cell death (INS-1 β-cells; 20 μM) |
| --- | --- | --- | --- | --- | --- | --- | --- | --- | --- | --- | --- |
| O=C(COc1ccc(C(=O)c2ccccc2)cc1)NC1CCN(Cc2ccc(OCCOCCOCCOCCOCCO)cc2)CC1 [AdipoRonPEG5] | about 100 times | 910 ± 36 µg/mL (≈ 1370 µM) | eightfold | 25509.73 ± 1436.44 ng/mL | ~50% | potent antiapoptotic activity | suppress | significantly increased | elevates |  |  |
| O=C(COc1ccc(C(=O)c2ccccc2)cc1)NC1CCN(Cc2ccccc2)CC1 [AdipoRon] |  | 8.99 ± 0.15 µg/mL (≈ 21 µM) |  | 3169.30 ± 1437.09 ng/mL |  |  | suppress |  |  | 9 µg/mL (≈ 21 µM) | further modest increase in protection |
